Results from patent publication US20250179073A1, “TRICYCLIC HETEROCYCLE COMPOUNDS AS IAP ANTAGONISTS” (Ascentage Pharma (Suzhou) Co., Ltd., priority 2022, published 2025).

Columns and labels:
EVSA-T cells = experiment: Cell proliferation assay (CellTiter-Glo), EVSA-T; format: cell-based; conditions: Homo sapiens, EVSA-T, 72 h, 72 h treatment, Celltiter-Glo luminescence
Description: Example 238: Cell Proliferation Assay
MDA-MB-231 and EVSA-T cells (10000 cells/well) were plated onto 96-well plates (Corning, Cat #3917) in 95 μL of medium (RPMI-1640 containing 10% FBS and MEM containing 10% FBS, respectively). Compounds with various concentrations ([…]) were added to the wells. After treatment for 72 h, 30 μL of Celltiter-Glo reagent (Promega, Cat #G7573) was added and incubated at room temperature for 15 min, then the luminescent signal was determined using a microplate reader (Biotek, SynergyH1). The inhibitor dose-response curves were analyzed using normalized IC50 regression curve fitting with control based normalization.

MDA-MB-231 cells = experiment: Cell proliferation assay (CellTiter-Glo), MDA-MB-231; format: cell-based; conditions: Homo sapiens, MDA-MB-231, 72 h, 72 h treatment, Celltiter-Glo luminescence
Procedure, shortened: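 Compounds tested over ten concentrations ([…]) for 72 h on EVSA-T cells in MEM/10% FBS and MDA-MB-231 cells in RPMI-1640/10% FBS, seeded at 10000/well. Luminescent CellTiter-Glo readout; IC50 fitted after normalisation to controls.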

Row | IC50 (MDA-MB-231 cells) [nM] | SMILES | IC50 (EVSA-T cells) [nM]
1 | 100 | C[C@@H]1CN(CC(=O)N2CC(C)(C)c3c2cc(Cc2ccc(F)cc2)c2c(C#N)cnn32)[C@@H](CN2CCOC[C@H]2C)CN1 [Compound 105, 4-(4-fluorobenzyl)-8,8-dimethyl-6-(2-((2R,5R)-5-methyl-2-(((R)-3-methylmorpholino)methyl)piperazin-1-yl)acetyl)-7,8-dihydro-6H-pyrazolo[1,5-a]pyrrolo[2,3-e]pyridine-3-carbonitrile] | 9
2 | 61 | Cc1nc2c(Cc3ccc(F)cc3)cc3c(n2c1C)C(C)(C)CN3C(=O)CN1C[C@@H](C)NC[C@@H]1CN1CCOC[C@H]1C [Compound 109, 1-(4-(4-fluorobenzyl)-1,2,8,8-tetramethyl-7,8-dihydro-6H-imidazo[1,2-a]pyrrolo[2,3-e]pyridin-6-yl)-2-((2R,5R)-5-methyl-2-(((R)-3-methylmorpholino)methyl)piperazin-1-yl)ethan-1-one] | 9
3 | 42 | C[C@@H]1CN(CC(=O)N2CC(C)(C)c3c2cc(Cc2ccc(F)cc2)c2ncc(C#N)n32)[C@@H](CN2CCOC[C@H]2C)CN1 [Compound 111, 4-(4-fluorobenzyl)-8,8-dimethyl-6-(2-((2R,5R)-5-methyl-2-(((R)-3-methylmorpholino)methyl)piperazin-1-yl)acetyl)-7,8-dihydro-6H-imidazo[1,2-a]pyrrolo[2,3-e]pyridine-1-carbonitrile] | 2
4 | 74 | C[C@@H]1CN(CC(=O)N2CC(C)(C)c3c2cc(Cc2ccc(F)cc2)c2nc(Cl)cn32)[C@@H](CN2CCOC[C@H]2C)CN1 [Compound 113, 1-(2-chloro-4-(4-fluorobenzyl)-8,8-dimethyl-7,8-dihydro-6H-imidazo[1,2-a]pyrrolo[2,3-e]pyridin-6-yl)-2-((2R,5R)-5-methyl-2-(((R)-3-methylmorpholino)methyl)piperazin-1-yl)ethan-1-one] | 6
5 | 93 | C[C@@H]1CN(CC(=O)N2CC(C)(C)c3c2cc(Cc2ccc(F)cc2)c2nc(C(F)(F)F)cn32)[C@@H](CN2CCOC[C@H]2C)CN1 [Compound 116, 1-(4-(4-fluorobenzyl)-8,8-dimethyl-2-(trifluoromethyl)-7,8-dihydro-6H-imidazo[1,2-a]pyrrolo[2,3-e]pyridin-6-yl)-2-((2R,5R)-5-methyl-2-(((R)-3-methylmorpholino)methyl)piperazin-1-yl)ethan-1-one] | 19
6 | 120 | C[C@@H]1CN(CC(=O)N2CC(C)(C)c3c2cc(Cc2ccc(F)cc2)c2ncc(Cl)n32)[C@@H](CN2CCOC[C@H]2C)CN1 [Compound 118, 1-(1-chloro-4-(4-fluorobenzyl)-8,8-dimethyl-7,8-dihydro-6H-imidazo[1,2-a]pyrrolo[2,3-e]pyridin-6-yl)-2-((2R,5R)-5-methyl-2-(((R)-3-methylmorpholino)methyl)piperazin-1-yl)ethan-1-one] | 10
7 | 100 | C[C@@H]1CN(CC(=O)N2CC(C)(C)c3c2cc(Cc2ccc(F)cc2)c2ncc(Br)n32)[C@@H](CN2CCOC[C@H]2C)CN1 [Compound 119, 1-(1-bromo-4-(4-fluorobenzyl)-8,8-dimethyl-7,8-dihydro-6H-imidazo[1,2-a]pyrrolo[2,3-e]pyridin-6-yl)-2-((2R,5R)-5-methyl-2-(((R)-3-methylmorpholino)methyl)piperazin-1-yl)ethan-1-one] | 6
8 | 65 | C[C@@H]1CN(CC(=O)N2CC(C)(C)c3c2cc(Cc2ccc(F)cc2)c2nc(CF)cn32)[C@@H](CN2CCOC[C@H]2C)CN1 [Compound 121, 1-(4-(4-fluorobenzyl)-2-(fluoromethyl)-8,8-dimethyl-7,8-dihydro-6H-imidazo[1,2-a]pyrrolo[2,3-e]pyridin-6-yl)-2-((2R,5R)-5-methyl-2-(((R)-3-methylmorpholino)methyl)piperazin-1-yl)ethan-1-one] | 5
9 | 65 | C[C@@H]1CN(CC(=O)N2CC(C)(C)c3c2cc(Cc2ccc(F)cc2)c2nc(C(F)F)cn32)[C@@H](CN2CCOC[C@H]2C)CN1 [Compound 122, 1-(2-(difluoromethyl)-4-(4-fluorobenzyl)-8,8-dimethyl-7,8-dihydro-6H-imidazo[1,2-a]pyrrolo[2,3-e]pyridin-6-yl)-2-((2R,5R)-5-methyl-2-(((R)-3-methylmorpholino)methyl)piperazin-1-yl)ethan-1-one] | 6
10 | 20 | COc1nc2c(Cc3ccc(F)cc3)cc3c(n2n1)C(C)(C)CN3C(=O)CN1C[C@@H](C)NC[C@@H]1CN1CCOC[C@H]1C [Compound 126, 1-(4-(4-fluorobenzyl)-2-methoxy-8,8-dimethyl-7,8-dihydro-6H-pyrrolo[2,3-e][1,2,4]triazolo[1,5-a]pyridin-6-yl)-2-((2R,5R)-5-methyl-2-(((R)-3-methylmorpholino)methyl)piperazin-1-yl)ethan-1-one] | 3
11 | 12 | C[C@@H]1CN(CC(=O)N2CC(C)(C)c3c2cc(Cc2ccc(F)cc2)c2cnnn32)[C@@H](CN2CCOC[C@H]2C)CN1 [Compound 128, 1-(4-(4-fluorobenzyl)-8,8-dimethyl-7,8-dihydro-6H-pyrrolo[2,3-e][1,2,3]triazolo[1,5-a]pyridin-6-yl)-2-((2R,5R)-5-methyl-2-(((R)-3-methylmorpholino)methyl)piperazin-1-yl)ethan-1-one] | 2

Further lines, the compound ahead of its results:

Row | SMILES | IC50 (MDA-MB-231 cells) [nM] | IC50 (EVSA-T cells) [nM]
12 | C[C@@H]1CN(CC(=O)N2CC(C)(C)c3c2cc(Cc2ccc(F)cc2)c2ncnn32)[C@@H](CN2Cc3c(F)cccc3C2=O)CN1 [Compound 99, 4-fluoro-2-(((2R,5R)-1-(2-(4-(4-fluorobenzyl)-8,8-dimethyl-7,8-dihydro-6H-pyrrolo[2,3-e][1,2,4]triazolo[1,5-a]pyridin-6-yl)-2-oxoethyl)-5-methylpiperazin-2-yl)methyl)isoindolin-1-one] | 12 | 5
13 | C[C@@H]1CN(CC(=O)N2CC(C)(C)c3c2cc(Cc2ccc(F)cc2)c2ncnn32)[C@@H](CN2Cc3cc(F)ccc3C2=O)CN1 [Compound 100, 5-fluoro-2-(((2R,5R)-1-(2-(4-(4-fluorobenzyl)-8,8-dimethyl-7,8-dihydro-6H-pyrrolo[2,3-e][1,2,4]triazolo[1,5-a]pyridin-6-yl)-2-oxoethyl)-5-methylpiperazin-2-yl)methyl)isoindolin-1-one] | 21 | 4
14 | C[C@@H]1CN(CC(=O)N2CC(C)(C)c3c2cc(Cc2ccc(F)cc2)c2ncnn32)[C@@H](CN2Cc3ccc(F)cc3C2=O)CN1 [Compound 101, 6-fluoro-2-(((2R,5R)-1-(2-(4-(4-fluorobenzyl)-8,8-dimethyl-7,8-dihydro-6H-pyrrolo[2,3-e][1,2,4]triazolo[1,5-a]pyridin-6-yl)-2-oxoethyl)-5-methylpiperazin-2-yl)methyl)isoindolin-1-one] | 23 | 8
15 | Cc1cc(F)ccc1Cc1cc2c(n3ncnc13)C(C)(C)CN2C(=O)CN1C[C@@H](C)NC[C@@H]1CN1CCOC[C@H]1C [Compound 115, 1-(4-(4-fluoro-2-methylbenzyl)-8,8-dimethyl-7,8-dihydro-6H-pyrrolo[2,3-e][1,2,4]triazolo[1,5-a]pyridin-6-yl)-2-((2R,5R)-5-methyl-2-(((R)-3-methylmorpholino)methyl)piperazin-1-yl)ethan-1-one] | 160 | 30
16 | C[C@@H]1CN(CC(=O)N2CC(C)(C)c3c2cc(Cc2ccc(F)cc2Cl)c2ncnn32)[C@@H](CN2CCOC[C@H]2C)CN1 [Compound 123, 1-(4-(2-chloro-4-fluorobenzyl)-8,8-dimethyl-7,8-dihydro-6H-pyrrolo[2,3-e][1,2,4]triazolo[1,5-a]pyridin-6-yl)-2-((2R,5R)-5-methyl-2-(((R)-3-methylmorpholino)methyl)piperazin-1-yl)ethan-1-one] | 120 | 43
17 | C[C@@H]1CN(CC(=O)N2CC(C)(C)c3c2cc(Cc2ccc(F)cc2N)c2ncnn32)[C@@H](CN2CCOC[C@H]2C)CN1 [Compound 129, 1-(4-(2-amino-4-fluorobenzyl)-8,8-dimethyl-7,8-dihydro-6H-pyrrolo[2,3-e][1,2,4]triazolo[1,5-a]pyridin-6-yl)-2-((2R,5R)-5-methyl-2-(((R)-3-methylmorpholino)methyl)piperazin-1-yl)ethan-1-one] | 46 | 11
18 | Cc1nc(C#N)c2c(Cc3ccc(F)cc3)cc3c(n12)C(C)(C)CN3C(=O)CN1C[C@@H](C)NC[C@@H]1CN1CCOC[C@H]1C [Compound 130, 4-(4-fluorobenzyl)-1,8,8-trimethyl-6-(2-((2R,5R)-5-methyl-2-(((R)-3-methylmorpholino)methyl)piperazin-1-yl)acetyl)-7,8-dihydro-6H-imidazo[1,5-a]pyrrolo[2,3-e]pyridine-3-carbonitrile] | 230 | 37
19 | Cc1ncc(Cc2cc3c(n4ncnc24)C(C)(C)CN3C(=O)CN2C[C@@H](C)NC[C@@H]2CN2CCOC[C@H]2C)s1 [Compound 132, 1-(8,8-dimethyl-4-((2-methylthiazol-5-yl)methyl)-7,8-dihydro-6H-pyrrolo[2,3-e][1,2,4]triazolo[1,5-a]pyridin-6-yl)-2-((2R,5R)-5-methyl-2-(((R)-3-methylmorpholino)methyl)piperazin-1-yl)ethan-1-one] | 220 | 56
